Series [1] relates to DUX4 and downstream genes ZSCAN4, TRIM43, MBD3L2, LEUTX, KHDC1L. In words: DUX4-regulated downstream genes by real time PCR after DUX4 ASO. Type of series: cell-based, Human. Particulars: FSHD myotubes. As for the experimental part:
(§1) For ASO or compound treatments cells were plate into 100 μL of Promocell growth medium containing ASO or compounds at the described concentrations.
Wild type myotubes were treated with DMSO control vehicle, and mature patient-derived FSHD myotubes that express DUX4 protein were treated with DMSO vehicle control or 1 μM of a DUX4 sequence-directed antisense oligonucleotide (ASO; FTX-2) purchased from Exiqon. After treatment, the myotubes were lysed in 19.5 μL of Roche Real Time Ready Lysis Buffer, 0.25 μL of DNAse1 (Ambion, AM2222), 0.25 μL of Protector RNase Inhibitor (Roche, 3335402001), and the RNA was collected in an RNeasy Micro Kit Master Mix. Expression levels of DUX4-regulated downstream genes (ZSCAN4, TRIM43, MBD3L2, LEUTX, and KHDC1L) was determined by real time PCR (ThermoFisher Scientific, 4484262), ZSCAN4 Taqman Assay (ThermoFisher Scientific, Hs00537549_m1, FAM-MGB), MYOG Taqman Assay (ThermoFisher Scientific, Hs01072232_m1, JUN-QSY), RPLP0 Taqman Assay (ThermoFisher Scientific, Hs99999902_m1), and/or LEUTX Taqman Assay (ThermoFisher Scientific, Hs00418470_m1). Ct values were extracted from QuantStudio Realtime PCR software, and Genedata was used to calculate relative levels of expression using POLR2A as a housekeeping gene.
(Real-time PCR tracks product formation cycle by cycle.)

In a further series the test system is myogenin (MYOG) mRNA. In words: Myogenin (MYOG) mRNA expression by qPCR in FSHD myotubes (control gene). Type of series: cell-based, Human. The protocol:
as §1
(§2) On day 0, change to differentiation media. Remove plates from the incubator and aspirate the growth medium, Wash once with PBS, 100 μL for 96-wells and 1 mL for a 6-well plate, Add 100 μL or 2 mL of differentiation medium per well, 96- or 6-well respectively. Add antisense oligonucleotides or drug at the desire concentration and put back in the incubator. Fusion should start within day 1-2. Incubate for 3-4 days.
(§3) Cells were removed from the incubator and media aspirated. Quickly lysed following one of the following protocols: For lysis in 96-well plates direct lysis and one-step RT-Preamp qPCR protocol described below. For each 96-well prepare a mix containing: 19.5 μL Roche Realtime Ready lysis buffer, 0.25 μL RNAse inhibitor, 0.25 μL DNAseI (from Thermo not the included one in the kit). 20 μL of the mix was added to each well, mix 5 times and incubated 5 minutes at RT or alternatively shaken vigorously for 15 minutes. Lysis was observed under the microscope. Samples were frozen −80° C. at least for 15 minutes,
For qPCR, dilute 1:10 and use 2 μL for a 10 μL 1-step RT-qPCR reaction. For detection of GAPDH, RPLP0, TBP, MYOG, FRG1, MYH3, ACTN2, etc.). Per 10 μL reaction: RNA (1:10 dilution lysate) 2 μL, Fast Advanced Taqman Master Mix (2×) 5 μL, RT enzyme mix (40×) 0.25 μL, Taqman probe set (20×) 0.5 μL, H2O 2.25 μL. The following reaction protocol was run on the QuantStudio 7: 48° C. for 15 min, 50° C. for 2 min, 95° C. for 30 sec, 40×, 95° C. for 5 sec, 60° C. for 30 sec, then plates were read as specified by the manufacturer (Thermo). For 1-step RT-Preamplification used for detection of DUX4 downstream genes, i.e. MBD3L2, ZSCAN4, LEUTX, TRIM43, KHDC1L. POL2RA-VIC was used as Endogenous control). Per 10 μL reaction: RNA (1:10 dilution lysate) 2.25 μL, Taqman Pre-Amp Master Mix (2×) 5 μL, RT enzyme mix (40×) 0.25 μL, Taqman probe set (0.2×)*2.5 μL, * Pooling the TaqMan Assays: equal volumes of each 20× TaqMan® Gene Expression Assay, up to 100 assays were combined. For example, to pool 50 TaqMan assays, 10 μL of each assay were combined in a microcentrifuge tube. The pooled TaqMan assays were diluted using 1×TE buffer so that each assay is at a final concentration of 0.2×. […] The following program was run on the QuantStudio7: 50° C. for 2 min, 95° C. for 30 sec, 40×, 95° C. for 5 sec, 60° C. for 30 sec, plates were read as per the manufacturers specifications (Thermo).
(§4) After treatment, the control and treated cells were processed for realtime PCR quantification of MBD3L2 mRNA (DUX4 downstream gene) and myogenin (MYOG) mRNA (control) expression.

The test system of series [2] is MBD3L2 mRNA (DUX4 downstream gene). Kind of series: MBD3L2 mRNA expression by qPCR in FSHD myotubes. Type of series: cell-based, Human. The following applies: for IC50: Homo sapiens, Myotube, read-out: IC50, reduction of MBD3L2 mRNA expression, FSHD myotubes, realtime PCR. As for the experimental part:
Cell Plating: Performed three days prior to treatment, 10000 cells were plated per well on gelatinized 96-well plates, or 100000 cells on gelatinized 6-well plates.
as §1, §2, §3
For qPCR, dilute 1:10 and use 2 μL for a 10 μL 1-step RT-qPCR reaction. For detection of GAPDH, RPLP0, TBP, MYOG, FRG1, MYH3, ACTN2, etc.). Per 10 μL reaction: RNA (1:10 dilution lysate) 2 μL, Fast Advanced Taqman Master Mix (2×) 5 μL, RT enzyme mix (40×) 0.25 μL, Taqman probe set (20×) 0.5 μL, H2O 2.25 μL. The following reaction protocol was run on the QuantStudio 7: 48° C. for 15 min, 50° C. for 2 min, 95° C. for 30 sec, 40×, 95° C. for 5 sec, 60° C. for 30 sec, then plates were read as specified by the manufacturer (Thermo). For 1-step RT-Preamplification used for detection of DUX4 downstream genes, i.e. MBD3L2, ZSCAN4, LEUTX, TRIM43, KHDC1L. POL2RA-VIC was used as Endogenous control). Per 10 μL reaction: RNA (1:10 dilution lysate) 2.25 μL, Taqman Pre-Amp Master Mix (2×) 5 μL, RT enzyme mix (40×) 0.25 μL, Taqman probe set (0.2×)*2.5 μL, * Pooling the TaqMan Assays: equal volumes of each 20× TaqMan® Gene Expression Assay, up to 100 assays were combined. For example, to pool 50 TaqMan assays, 10 μL of each assay were combined in a microcentrifuge tube. The pooled TaqMan assays were diluted using 1×TE buffer so that each assay is at a final concentration of 0.2×. For the above example, add 500 μL of 1×TE buffer to the pooled TaqMan assays for a total final volume of 1 mL. The QuantStudio7 protocol was used 48° C. 15 min, 95° C. 10 min, 10 cycles: 95° C. 15 sec, 60° C. 4 min, 4° C. infinite. Samples were then diluted to 50 μL and continue with the qPCR step. Per 10 μL reaction: Preamp dilution 2 μL, Fast Advanced Taqman Master Mix (2×) 5 μL, Taqman probe set (20×) 0.5 μL, H2O 2.5 μL. When multiplexing the volume was adjusted to 10 μL total). The following program was run on the QuantStudio7: 50° C. for 2 min, 95° C. for 30 sec, 40×, 95° C. for 5 sec, 60° C. for 30 sec, plates were read as per the manufacturers specifications (Thermo).
as §4

For series [3], the system named is DUX4 dependent target genes. Kind of series: Prediction for FSHD patient muscle from rat muscle concentrations and in vitro myotube data. Also on record: species or system Human. The following applies: at Cmax, FSHD patient muscle biopsies. As for the experimental part: P38 system target engagement persisted for at least 12 hours following the single dose of FTX-1821 (FIG. 15). P38 system target engagement in trapezius muscle was maximal when plasma and muscle concentrations of FTX-1821 were greater than 20 ng/mL or ng/g and declined at timepoints when exposures decreased. The muscle concentrations of FTX-1821 achieved in the rat study are predicted to result in >70% reduction at Cmax in DUX4 dependent target genes in FSHD patient muscle biopsies based upon in vitro data in FSHD myotubes (above).

In series [4] the test system is phospho MK2 to total MK2 ratio. In words: p38 system target engagement in rat trapezius muscle. Type of series: in vivo, Sprague-Dawley rats.
Protocol: Pharmacodynamic analysis of p38 system target engagement in muscle tissue was performed by measuring the change in phosphor MAP kinase-activated protein kinase 2 (MK2) to total MK2 ratio before and after drug treatment.
A further series concerns FSHD myotubes. In words: Myotube formation / fusion, MHC and DAPI staining. Particulars: immortalized FSHD myotubes; 1, 0.33, 0.11, 0.037 μM; 4 days. Type of series: cell-based, Human. The protocol: as §2
Briefly, cells were fixed in 4% paraformaldehyde and […] for 10 min at room temperature. Cells were permeabilized with PBST (1×PBS solution with 0.1% Triton X-100) before blocking with 10% Normal Donkey Serum or 3% BSA (NDS) in PBST. […] DUX4 was detected by immunocytochemistry using the E5-5 antibody in differentiated FSHD myotubes. Activated Caspase-3 was detected cell signaling antibody that we're using for ICC, Asp175 (https://www.cellsignal.com/products/primary-antibodies/cleaved-caspase-3-asp175-antibody/9661).
Immortalized FHSD myotubes were differentiated and treated with DMSO vehicle control or FTX-1821 at concentrations of 1 μM, 0.33 μM, 0.11 μM, or 0.037 μM. […] The nuclei in myotubes were quantified according to MHC staining (FIG. 8B).

A further series has as its system DUX4 target genes. Kind of series: RNA-seq profiling of FSHD myotubes. Type of series: cell-based, Human. The text has this:
The 40 bp single-end reads from Illumina had good quality by checking with FastQC (http://www.bioinformatics.babraham.ac.uk/projects/fastqc/). Reads were mapped to hg19 using TopHat v2.1.1. The gene model for TopHat was created by merging known Gene in gtf format with kgXref table. Both known Gene and kgXref were downloaded from UCSC table browser in hg19 assembly. The read counts were obtained using feature Counts function from Subread package with strandness option as −r 2. Reads were normalized with DESeq2. […] Consequently, Combat was used for reducing this batch effect. Calculated standard RPKM expression values. Total gene signature is very small and defined at standard statistical cutoffs: 86/19,799 mRNA genes. DUX4-regulated gene signature is majority of total signature: 77/86 mRNA genes=90%. Non-DUX4 regulated genes is minority of total signature with moderate fold changes: 9/86 mRNA genes=10%; 2-2.7×log FC.
In addition, gene expression was also determined in wild type myotubes treated with DMSO. Three replicates for each condition were analyzed by RNA-seq and genes were clustered by the direction and intensity of change.

Where [5] appears, read: rat trapezius muscle, single oral dose 0.3 mg/kg.

This is an account of results in patent US11291659B2, “P38 kinase inhibitors reduce DUX4 and downstream gene expression for the treatment of FSHD” (Fulcrum Therapeutics, Inc., priority 2017, dated 2022).

“FTX-2: DUX4 sequence-directed antisense oligonucleotide purchased from Exiqon, CAGCGTCGGAAGGTGG (SEQ ID NO: 1) (listed as DNA, chemistry not given here)”: in series [1] (1 μM vs DMSO), the “expression of DUX4 and target genes ZSCAN4, TRIM43, MBD3L2, LEUTX, KHDC1L” value is recorded as “reduced amounts”. Moreover, the “DUX4 and downstream gene MBD3L2 expression” value in series [1] (different dilutions) is recorded as “dose dependent reduction”.
As a reminder, the IC50 is the concentration that inhibits the measured activity by half. Consider `CCc1nc(-c2cccc(C)c2)c(-c2ccnc(NC(=O)c3ccccc3)c2)s1` [TAK-715, N-(4-(2-ethyl-4-(3-methylphenyl)-1,3-thiazol-5-yl]-2-pyridyl]benzamide], for which the “MYOG mRNA expression” value with myogenin (MYOG) mRNA is “no impact”. The IC50 in series [2] was less than 10 nM.
Consider `COc1nccc(-c2c(-c3ccc(F)cc3)ncn2C2CCC(O)CC2)n1` (stereo not shown) [SB239063], for which the “MYOG mRNA expression” value in the series on myogenin (MYOG) mRNA is given as “no impact”.
As for `NC(=O)c1ccc(N(C(N)=O)c2c(F)cccc2F)nc1-c1ccc(F)cc1F` [VX-702, 2-(2,4-difluorophenyl)-6-(1-(2,6-difluorophenyl)ureido)nicotinamide], in the series with myogenin (MYOG) mRNA, the “MYOG mRNA expression” value is recorded as “no impact”. In addition, the IC50 in series [2] is less than 10 nM.
For the compound `Cc1c(F)cc(C(=O)NC2CC2)cc1-c1ccc(C(=O)NCC(C)(C)C)cn1` [FTX-1821], the “predicted reduction in DUX4 dependent target genes” value in series [3] is listed as greater than 70%. In addition, the “plasma concentration at which inhibition of the p38 system in muscle was maximal” value in series [4] (rat) is “greater than 20 ng/mL”. In series [4] (rat trapezius muscle), the “plasma and muscle concentrations at which target engagement was maximal” value is given as “greater than 20 ng/mL or ng/g”. Also, in series [4] (setting [5]), the “phospho MK2 to total MK2 ratio” value is given as “significantly decreased” and the “time to decrease of phospho MK2 to total MK2 ratio” value was no more than 1 h. For the same compound, the “persistence of p38 system target engagement” value in series [4] (rat, single oral dose 0.3 mg/kg) is given as “at least 12 hours”. In addition, the “myotube formation or fusion” value in the series with FSHD myotubes was “no changes”. Further, the “MBD3L2 mRNA expression” value in series [2] (FSHD1 and FSHD2 primary patient myoblast lines, 1 μM) is recorded as “reduction of MBD3L2”. Further, the MBD3L2 expression levels result in series [2] (myotubes of four FSHD patient lines FTCE-016, -020, -197, -196, 1 μM) is “reduced in all of the FSHD lines”. Moreover, in the series on DUX4 target genes (1 μM vs DMSO, RNA-seq), the “Non-DUX4-regulated genes in total signature” value was 9/86 and the “fold changes of non-DUX4-regulated genes” value is on record as 2-2.7 × log FC. The “expression of differentially expressed (DUX4 pathway) genes” value in the series with DUX4 target genes (1 μM, compared with wild type cells) is on record as “normalized”.
